Results reported in PubChem BioAssay (NCI).
In brackets after ≈: the same amount, converted by molar mass. Several values for one entry are separate records, joined by “and”; a condition that tells them apart may be missing. Identical values can stand only once.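 Five concentrations, 48 hours, 96-well plates. GI50 = concentration required for 50% inhibition of growth. TGI: concentration producing complete growth inhibition.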 Activity calls are given as the source filed them. No stated cut-off is given here; in the data, active means GI50 below about 0.43 µM; inactive means the rest.

Legend:
Test in all cases: NCI anticancer screen, dose series, 48 h
[1] = test system: DLD-1 colon
[2] = test system: DMS 114 small cell lung
[3] = test system: DMS 273 small cell lung
[4] = test system: HOP-18 NSCLC
[5] = test system: KM20L2 colon
[6] = test system: LXFL 529 NSCLC
[7] = test system: M19-MEL melanoma
[8] = test system: SNB-78 CNS

SMILES	TGI [1]	TGI [2]	TGI [3]	TGI [4]	TGI [5]	TGI [6]	TGI [7]	TGI [8]	GI50 [1]	GI50 [3]	outcome [4]	outcome [5]	outcome [6]	GI50 [7]	GI50 [8]
COC(=O)C1Cc2c([nH]c3ccccc23)[C@H](CC(C)C)N1 (some centres undefined)	> 100 µM	> 100 µM	> 100 µM	> 100 µM	> 100 µM	> 100 µM	> 100 µM	> 100 µM							
CC(=O)OCC1OC(n2cc(F)c(=O)[nH]c2=O)C(OC(C)=O)C1OC(C)=O (centres undefined)	> 100 µM	> 100 µM		> 100 µM	> 100 µM	> 100 µM	> 100 µM	> 100 µM							
COc1ccc(NC(=O)CC/C(CC(=O)c2ccco2)=N/Nc2ccc([N+](=O)[O-])cc2[N+](=O)[O-])cc1		69.6 µM	> 100 µM	> 100 µM	> 100 µM	> 100 µM	> 100 µM	> 100 µM							
C=CCCc1cc(OC)ccc1CN(C)C(C)(C)CO	> 100 µM	> 100 µM	> 100 µM	> 100 µM	> 100 µM		> 100 µM	> 100 µM							
O=c1[nH]nc(-c2ccccc2)c(-c2ccccc2)c1-n1nc(-c2ccccc2)c2ccccc2c1=O	> 100 µM		> 100 µM	> 100 µM		> 100 µM	> 100 µM	> 100 µM							
O=C(Nc1ccc(Cl)cc1)NS(=O)(=O)c1ccc2c(c1)CCC2	> 100 µM and 41.1 µg/mL	> 100 µM	> 100 µM and 39.6 µg/mL	> 100 µM	> 100 µM	> 100 µM	> 100 µM and 58.5 µg/mL	> 100 µM and 51 µg/mL	19.5 µg/mL (≈ 55.5 µM)	17.6 µg/mL (≈ 50.3 µM)	inactive	inactive	inactive	29.8 µg/mL (≈ 85.1 µM)	8.37 µg/mL (≈ 23.9 µM)
C=C1C(=O)OC2C1C(OC(=O)/C(=C/C)COC(C)=O)CC1(CO1)C1C(OC(=O)/C(=C/C)CO)C=C(C)C21 (centres undefined)	4.14 µM	4.46 µM	3.68 µM	2.74 µM	11.2 µM	1.66 µM	4.3 µM	6.41 µM							
CC(=O)OC1COC(N2C(=O)C(=O)c3c(C)cc(Cl)nc32)C(OC(C)=O)C1OC(C)=O (centres undefined)	> 100 µM	> 100 µM	> 100 µM	> 100 µM	> 100 µM	> 100 µM	> 100 µM	> 100 µM							
C[N+](C)(C)CC(=O)N/N=C(/C=C/c1ccccc1)CC1OC(=O)c2ccccc21 (centres undefined)	> 100 µM	> 100 µM	> 100 µM	> 100 µM	> 100 µM	> 100 µM	> 100 µM	> 100 µM							
CCc1ccc(Cc2ccc(CC)c(NC(=O)C(=O)Cc3nc4ccccc4nc3C)c2CC)c(CC)c1NC(=O)C(=O)Cc1nc2ccccc2nc1C	> 100 µM	> 100 µM			> 100 µM	> 100 µM	> 100 µM	> 100 µM							
CCCCNC(=S)Nn1c(-c2ccccc2)nc2ccccc2c1=O	> 100 µM	> 100 µM	> 100 µM	> 100 µM		> 100 µM	> 100 µM								
CN(C)CCCn1cnc2ncccc2c1=O	> 100 µM	> 100 µM	> 100 µM			> 100 µM	> 100 µM	> 100 µM							
CCCOC(=O)C1CCC(=O)N1C(=O)C(Cl)Cl (centres undefined)	> 100 µM	> 100 µM	> 100 µM	> 100 µM	> 100 µM	> 100 µM	> 100 µM	> 100 µM							
COC1OC(OC)C2C(c3c(C)cc(C)cc3C)=NOC12 (centres undefined)	> 100 µM		> 100 µM	> 100 µM	> 100 µM	> 100 µM	> 100 µM	> 100 µM							
COCCNC(=O)C1C(=O)N(CCOC)C(=O)/C1=N/N (centres undefined)	> 100 µM		> 100 µM		> 100 µM	> 100 µM	> 100 µM	> 100 µM							
CCCCN(CCCC)C(=Nc1ccccc1)N(CCCC)CCCC	43.6 µM	4.99 µM	17.1 µM	6.39 µM	12.5 µM	18.5 µM	22.4 µM	41 µM							
N#Cc1c([N+](=O)[O-])cc(C(F)(F)F)cc1[N+](=O)[O-]	16.7 µM	3.93 µM	16.8 µM	23.9 µM	44.2 µM	4.42 µM	5.27 µM	4.15 µM							
